According to PubChem BioAssay AID248 (DTP/NCI, 2004):
“And” between values parts separate entries of the source, which are not always exact repeats. Identical values can stand only once. Toxic doses and inconclusive results are not listed. Rule as the data show it: active = T/C of 150% or more; inactive = T/C below 125%.

Test system: L1210 leukemia ip in BDF1 mice, survival T/C
Assay: NCI In Vivo Anticancer Drug Screen. Data for tumor model L1210 Leukemia (intraperitoneal) in B6D2F1 (BDF1) mice
Conditions: endpoint: mean survival time, higher = longer survival
How it was run: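 Transplantable tumor model; survival measured in treated vs vehicle control mice. Value = treated/control.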

[1] = dose: 50.0 mg/kg/injection, schedule: Q01DX009 (ip), vehicle: saline with Tween-80
[2] = dose: 100.0 mg/kg/injection, schedule: Q01DX009 (ip), vehicle: saline with Tween-80
[3] = dose: 100.0 mg/kg/injection, schedule: Q04DX003 (ip), vehicle: saline with Tween-80
[4] = dose: 200.0 mg/kg/injection, schedule: Q01DX009 (ip), vehicle: saline with Tween-80
[5] = dose: 100.0 mg/kg/injection, schedule: Q01DX001 (ip), vehicle: saline
[6] = dose: 200.0 mg/kg/injection, schedule: Q01DX001 (ip), vehicle: saline
[7] = dose: 400.0 mg/kg/injection, schedule: Q01DX001 (ip), vehicle: saline
[8] = dose: 75.0 mg/kg/injection, schedule: Q01DX001 (ip), vehicle: saline
[9] = dose: 150.0 mg/kg/injection, schedule: Q01DX001 (ip), vehicle: saline
[10] = dose: 300.0 mg/kg/injection, schedule: Q01DX001 (ip), vehicle: saline
[11] = dose: 100.0 mg/kg/injection, schedule: Q01DX009 (ip), vehicle: Klucel (hydroxypropylcellulose) (HPC)
[12] = dose: 400.0 mg/kg/injection, schedule: Q01DX009 (ip), vehicle: saline with Tween-80

Measured: T/C

CC(CCC(=O)O)C1CCC2C3CCC4CC(OC=O)CCC4(C)C3CC(OC=O)C12C (centres undefined)
inactive: [1] 101 % of control | [2] 92 % of control | [3] 96 % of control | [4] 105 % of control

c1ccc(-n2nnnc2-c2nnnn2-c2ccccc2)cc1
inactive: [5] 98 % of control | [6] 98 % of control | [7] 101 % of control

C=C[CH2][Sn]([CH2]C=C)([c]1ccccc1)[c]1ccccc1
inactive: dose: 1.56 mg/kg/injection, schedule: Q01DX009 (ip), vehicle: saline with Tween-80 97 % of control | dose: 3.13 mg/kg/injection, schedule: Q01DX009 (ip), vehicle: saline with Tween-80 92 % of control | dose: 6.25 mg/kg/injection, schedule: Q01DX009 (ip), vehicle: saline with Tween-80 86 % of control

COc1cc2ccnc(-c3onc4cc(OC)c(OC)cc34)c2cc1OC
inactive: [8] 101 % of control | [9] 98 % of control | [10] 98 % of control

Nc1ccc(N=Nc2ccccc2)c2cccnc12 (tested in a mixture with another compound)
inactive: dose: 100.0 mg/kg/injection, schedule: Q04DX003 (sc), vehicle: olive oil, sesame oil, peanut oil 100 % of control | dose: 200.0 mg/kg/injection, schedule: Q04DX003 (sc), vehicle: olive oil, sesame oil, peanut oil 100 % of control | dose: 400.0 mg/kg/injection, schedule: Q04DX003 (sc), vehicle: olive oil, sesame oil, peanut oil 117 % of control

Clc1ccnc(NC2CCCCC2)c1
inactive: [5] 92 % of control | [6] 98 % of control | [7] 100 % of control

CCCCCCSC(=N)N
inactive: dose: 12.5 mg/kg/injection, schedule: Q01DX001 (ip), vehicle: saline 95 % of control | dose: 12.5 mg/kg/injection, schedule: Q04DX002 (ip), vehicle: saline 94 % of control and 97 % of control | dose: 12.5 mg/kg/injection, schedule: Q04DX003 (ip), vehicle: saline 119 % of control | dose: 25.0 mg/kg/injection, schedule: Q01DX001 (ip), vehicle: saline 100 % of control | dose: 25.0 mg/kg/injection, schedule: Q04DX002 (ip), vehicle: saline 94 % of control and 100 % of control | dose: 25.0 mg/kg/injection, schedule: Q04DX003 (ip), vehicle: saline 104 % of control | dose: 50.0 mg/kg/injection, schedule: Q01DX001 (ip), vehicle: saline 89 % of control | dose: 50.0 mg/kg/injection, schedule: Q04DX002 (ip), vehicle: saline 103 % of control and 106 % of control | dose: 50.0 mg/kg/injection, schedule: Q04DX003 (ip), vehicle: saline 102 % of control

Cc1c2c(n(C)c1C(=O)N1CCOCC1)CCCC2=O
inactive: dose: 100.0 mg/kg/injection, schedule: Q04DX003 (ip), vehicle: carboxymethylcellulose (CMC) 101 % of control | dose: 200.0 mg/kg/injection, schedule: Q04DX003 (ip), vehicle: carboxymethylcellulose (CMC) 98 % of control | dose: 400.0 mg/kg/injection, schedule: Q04DX003 (ip), vehicle: carboxymethylcellulose (CMC) 98 % of control

O=[N+]([O-])c1ccc(Oc2cc(Cl)c(Cl)cc2Cl)c(Cl)c1
inactive: [8] 87 % of control | [9] 90 % of control | [10] 87 % of control

COc1ccc(C2=NC(=O)C(C(=O)c3ccccc3)O2)cc1 (centres undefined)
inactive: [5] 94 % of control | [6] 96 % of control | [7] 96 % of control

CC12CCC(C1)C(C)(C)/C2=N\O (centres undefined)
inactive: [11] 96 % of control | dose: 100.0 mg/kg/injection, schedule: Q04DX002 (ip), vehicle: Klucel (hydroxypropylcellulose) (HPC) 100 % of control | dose: 200.0 mg/kg/injection, schedule: Q01DX009 (ip), vehicle: Klucel (hydroxypropylcellulose) (HPC) 88 % of control | dose: 200.0 mg/kg/injection, schedule: Q04DX002 (ip), vehicle: Klucel (hydroxypropylcellulose) (HPC) 96 % of control | dose: 400.0 mg/kg/injection, schedule: Q01DX009 (ip), vehicle: Klucel (hydroxypropylcellulose) (HPC) 92 % of control | dose: 400.0 mg/kg/injection, schedule: Q04DX002 (ip), vehicle: Klucel (hydroxypropylcellulose) (HPC) 96 % of control

COc1cc(Cl)ccc1NC(=O)Oc1ccccc1C(N)=O
inactive: dose: 6.25 mg/kg/injection, schedule: Q01DX009 (ip), vehicle: Klucel (hydroxypropylcellulose) (HPC) 102 % of control | dose: 12.5 mg/kg/injection, schedule: Q01DX009 (ip), vehicle: Klucel (hydroxypropylcellulose) (HPC) 91 % of control | dose: 25.0 mg/kg/injection, schedule: Q01DX009 (ip), vehicle: Klucel (hydroxypropylcellulose) (HPC) 97 % of control | dose: 50.0 mg/kg/injection, schedule: Q01DX009 (ip), vehicle: Klucel (hydroxypropylcellulose) (HPC) 91 % of control | [11] 100 % of control

CC1C=CCP1(C)=O (centres undefined)
inactive: [2] 91 % of control | [4] 96 % of control | [12] 94 % of control

O=C1c2ccccc2CCC1C1(O)C(=O)Nc2ccccc21 (centres undefined)
inactive: [1] 104 % of control | [2] 101 % of control | [4] 93 % of control

CCCCc1cc(O)c2c(c1O)C(=O)c1ccccc1C2=O
inactive: dose: 100.0 mg/kg/injection, schedule: Q01DX001 (ip), vehicle: saline sonified 91 % of control | dose: 100.0 mg/kg/injection, schedule: Q01DX009 (ip), vehicle: saline sonified 97 % of control | dose: 200.0 mg/kg/injection, schedule: Q01DX001 (ip), vehicle: saline sonified 86 % of control | dose: 200.0 mg/kg/injection, schedule: Q01DX009 (ip), vehicle: saline sonified 102 % of control | dose: 400.0 mg/kg/injection, schedule: Q01DX001 (ip), vehicle: saline sonified 94 % of control | dose: 400.0 mg/kg/injection, schedule: Q01DX009 (ip), vehicle: saline sonified 96 % of control

COc1cc2c(cc1OCc1ccccc1)C=CN(C(=O)c1ccccc1)C2C#N (centres undefined)
inactive: dose: 25.0 mg/kg/injection, schedule: Q01DX009 (ip), vehicle: saline 100 % of control | dose: 50.0 mg/kg/injection, schedule: Q01DX009 (ip), vehicle: saline 94 % of control | dose: 100.0 mg/kg/injection, schedule: Q01DX009 (ip), vehicle: saline 94 % of control | dose: 200.0 mg/kg/injection, schedule: Q01DX009 (ip), vehicle: saline 93 % of control | dose: 400.0 mg/kg/injection, schedule: Q01DX009 (ip), vehicle: saline 98 % of control

FC(F)(F)c1cccc(NC(=S)SCc2ccccc2)c1
inactive: dose: 75.0 mg/kg/injection, schedule: Q04DX003 (ip), vehicle: saline with Tween-80 95 % of control | dose: 150.0 mg/kg/injection, schedule: Q04DX003 (ip), vehicle: saline with Tween-80 98 % of control | dose: 300.0 mg/kg/injection, schedule: Q04DX003 (ip), vehicle: saline with Tween-80 102 % of control

O=C(CCl)N1CCC(C(O)c2cc3ccccc3n2S(=O)(=O)c2ccccc2)CC1 (centres undefined)
inactive: dose: 100.0 mg/kg/injection, schedule: Q04DX002 (ip), vehicle: saline with Tween-80 94 % of control | dose: 200.0 mg/kg/injection, schedule: Q04DX002 (ip), vehicle: saline with Tween-80 94 % of control | dose: 400.0 mg/kg/injection, schedule: Q04DX002 (ip), vehicle: saline with Tween-80 97 % of control

COc1ccc(Nc2cc(=O)[nH]c(N)n2)cc1
inactive: dose: 100.0 mg/kg/injection, schedule: Q01DX Z (ip), vehicle: methylcellulose (MC) 112 % of control | dose: 200.0 mg/kg/injection, schedule: Q01DX Z (ip), vehicle: methylcellulose (MC) 108 % of control

CCOC(=O)C(CSCSC)NC(=O)/C=C/c1cccnc1 (centres undefined)
inactive: [2] 101 % of control | [3] 93 % of control | [4] 98 % of control | dose: 200.0 mg/kg/injection, schedule: Q04DX003 (ip), vehicle: saline with Tween-80 97 % of control | [12] 90 % of control | dose: 400.0 mg/kg/injection, schedule: Q04DX003 (ip), vehicle: saline with Tween-80 90 % of control
